The text below walks through data of patent US9115122B2, “Non-ATP dependent inhibitors of extracellular signal-regulated kinase (ERK)” (UNIVERSITY OF MARYLAND, BALTIMORE, priority 2012, dated 2015).

As usually defined, the GI50 is the concentration that inhibits growth by half. Higher therefore signals lower sensitivity of the cells.

The target of one test is ERK2 L235A (Rattus norvegicus (Rat), UniProt P63086, L235A). Description: Fluorescence quenching (FQ) binding affinity. The following applies: read-out: KD L235A (Site 5).
ERK2 L235A, sequence (P63086 whole entry L235A): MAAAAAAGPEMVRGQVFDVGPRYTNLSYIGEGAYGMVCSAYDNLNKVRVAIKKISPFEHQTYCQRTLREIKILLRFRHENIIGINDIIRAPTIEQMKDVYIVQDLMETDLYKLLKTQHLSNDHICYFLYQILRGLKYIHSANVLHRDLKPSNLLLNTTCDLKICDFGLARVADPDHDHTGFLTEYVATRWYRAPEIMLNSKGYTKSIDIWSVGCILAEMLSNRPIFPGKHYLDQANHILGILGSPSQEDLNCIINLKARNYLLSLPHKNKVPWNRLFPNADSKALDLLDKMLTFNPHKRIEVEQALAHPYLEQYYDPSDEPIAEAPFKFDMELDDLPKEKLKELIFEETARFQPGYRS
In the next test the test system is RPMI7951 melanoma cells. In words: Cell proliferation, fluorescent Cell Titer Blue Assay (Example 1). It counts as cell-based. The following applies: Homo sapiens, RPMI-7951; 48 hours. In short, it runs like this:
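Cells seeded at 25,000/well, cultured overnight, then treated with compound across a concentration range for 48 hours. Proliferation read by fluorescent Cell Titer Blue; repeated in 3 separate experiments.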

Test [1] deals with c-Fos, Fra1, and FosB expression. In words: Immunoblot of EGF-induced c-Fos, Fra1 and FosB expression in HeLa cells. It counts as cell-based. The following applies: EGF 25 ng/mL. As to the method:
FIG. 3. EGF-mediated induction of AP-1 proteins is inhibited by SF-3-026 and SF-3-030. (a) HeLa cells were treated for 10, 30, or 60 min. with EGF (25 ng/mL) in the presence of 50 μM SF-3-026 or 10 μM U0126. Protein lysates were immunoblotted for c-Fos, Fra1, FosB and FosB2. Phosphorylated ERK1/2 is not affected by SF-3-026 and α-tubulin expression is shown for a protein loading control. (b) Protein lysates from HeLa cells treated for 30 min. with EGF in the absence or presence of 10, 25, 50, or 100 μM of SF-3-026 or SF-3-030 were immunoblotted for c-Fos, Fra1, FosB, FosB2, as well as phosphorylated ERK1/2 and MEK1/2. Total ERK2 and α-tubulin expression are shown for protein loading controls. Data are representative of three independent experiments.
Analysis of protein expression levels, activity, and cell proliferation were done as previously described. […] Proteins were separated by SDS-PAGE, analyzed by immunoblotting, and detected using enhanced chemiluminescence (ECL, GE Healthcare, United Kingdom).
The reported half-life for c-Fos is ˜10 minutes and growth factor-mediated stabilization of c-Fos protein expression can be observed within 30-60 minutes, whereas stabilization of Fra1 protein is delayed due to AP-1 regulation of the Fra1 promoter. Thus, growth factor-mediated induction of c-Fos, Fra1, and FosB expression was evaluated following treatment with SF-3-026. […]
On the technique in general: Immunoblotting shows a protein as a band on a membrane.

Another test has as its target ERK2 L198A/L235A (Rattus norvegicus (Rat), UniProt P63086, L198A/L235A). In words: Fluorescence quenching (FQ) binding affinity. The following applies: read-out: KD L198A/L235A (Site 5).

Where only a bound is given, the exact number is not on record here.

ERK2 L198A/L235A, sequence (P63086 whole entry L198A/L235A): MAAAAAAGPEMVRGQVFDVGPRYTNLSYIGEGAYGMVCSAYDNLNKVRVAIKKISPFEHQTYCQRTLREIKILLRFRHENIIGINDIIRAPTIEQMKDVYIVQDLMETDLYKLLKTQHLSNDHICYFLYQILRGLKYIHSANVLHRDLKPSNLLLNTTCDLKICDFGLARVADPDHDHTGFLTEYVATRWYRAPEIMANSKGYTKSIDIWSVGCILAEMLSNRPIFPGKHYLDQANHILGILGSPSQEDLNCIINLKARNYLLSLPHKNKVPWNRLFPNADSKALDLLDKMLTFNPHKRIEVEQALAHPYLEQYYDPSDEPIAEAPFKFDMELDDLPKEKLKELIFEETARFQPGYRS

Take `O=S1(=O)C=CC(OS(=O)(=O)c2ccccc2)C1` (stereo not shown) [SF-3-026]: the values for the Kd at ERK2 L235A and on ERK2 L198A/L235A were 0.09 ± 0.02 µM and greater than 20 µM, respectively. This compound gave a GI50 in the test with RPMI7951 melanoma cells of 5.1 µM. Also, in test [1], the “inhibition of EGF-induced c-Fos, Fra1, and FosB expression” value is “dramatic inhibition”.
